Earlier results as cited in US20150099002A1, “MEANS AND METHODS FOR ENHANCING WEIGHT GAIN IN POULTRY” (Nutrinia Ltd., priority 2007, published 2015).

Tested on: Cobb male chicks
Details: through drinking water or feed, high amounts, at least 21 days

For “insulin: insulin provided to chicks through drinking water or feed in WO 2005/115473”, the “weight gain compared to same feed without insulin” value is given as “higher weight gain”.
